Assays:
Type in all cases: in vivo
Phakopsora pachyrhizi = experiment: Test A: Asian soybean rust control on soybean seedlings; details: sprayed to run-off on soybean seedlings, inoculated the following day, 100 = 100% disease control, 0 = no control; for pest or weed control at 250 ppm: Phakopsora pachyrhizi, 216 h, read-out: Test A disease control rating
Outline: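 Compounds in acetone/water (50/50) with 250 ppm PEG400 were sprayed to run-off on soybean seedlings, which were inoculated with P. pachyrhizi spores the next day. Plants were held in saturated atmosphere at 22° C for 24 h, then 8 days at 22° C, before visual rating (0–100% disease control vs controls).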

Zymoseptoria tritici = experiment: Test B: wheat leaf blotch control on wheat seedlings; details: 250 ppm (incl. values marked * = tested at 250 ppm), sprayed to run-off on wheat seedlings, inoculated the following day; 100 = 100% disease control, 0 = no control
Description: General protocol for preparing test suspensions for Tests A-C: the test compounds were first dissolved in acetone in an amount equal to 3% of the final volume and then suspended at the desired concentration (in ppm) in acetone and purified water (50/50 mix by volume) containing 250 ppm of the surfactant PEG400 (polyhydric alcohol esters). The resulting test suspensions were then used in Tests A-C. The test solution was sprayed to the point of run-off on wheat seedlings. The following day the seedlings were inoculated with a spore suspension of Zymoseptoria tritici (the causal agent of wheat leaf blotch) and incubated in a saturated atmosphere at 24° C. for 48 h, and then moved to a growth chamber at 20° C. for 17 days, after which time disease ratings were made. Results for Tests A-C are given in Table A. In the Table, a rating of 100 indicates 100% disease control and a rating of 0 indicates no disease control (relative to the controls). A dash (-) indicates the compound was not tested.

[1] = test system: Puccinia recondita f. sp. tritici; experiment: Test C: wheat leaf rust control on wheat seedlings; details: sprayed to run-off on wheat seedlings, inoculated the following day, 100 = 100% disease control, 0 = no control; for pest or weed control at 250 ppm: Puccinia recondita, 168 h, read-out: Test C disease control rating
Outline: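 Wheat seedlings were sprayed to run-off with compound suspension (ppm, acetone/water with 250 ppm PEG400), then inoculated with Puccinia recondita f. sp. tritici spores the next day. Plants were held 24 h in saturated atmosphere at 20 °C, then 6 days in a 20 °C growth chamber. Disease control is rated 0-100% relative to untreated controls.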

Structure (SMILES) | Test A disease control rating (Phakopsora pachyrhizi; 250 ppm) [%] | Test B disease control rating (Zymoseptoria tritici) | Test C disease control rating ([1]; 250 ppm) [%] | also measured
C#CCNC(=O)OC(c1ccc(-c2noc(C(F)(F)F)n2)cc1)c1cccc(Cl)c1 (stereo not drawn) [Compound 104] | 100 | 84% | 80 | 
COC(=O)NN=Cc1ccc(-c2noc(C(F)(F)F)n2)cc1 [Compound 105, methyl 2-[[4-[5-(trifluoromethyl)-1,2,4-oxadiazol-3-yl]phenyl]methylene]-hydrazinecarboxylate] |  | 99% |  | pest or weed control at 250 ppm (Phakopsora pachyrhizi; 250 ppm): 100%; pest or weed control at 250 ppm ([1]; 250 ppm): 100%
NC(=O)OC(c1ccc(F)cc1)c1ccc(-c2noc(C(F)(F)F)n2)cc1 (stereo not drawn) [Compound 112] | 100 | 85% | 100 | 
CNC(=O)OC(c1ccc(F)cc1)c1ccc(-c2noc(C(F)(F)F)n2)cc1 (stereo not drawn) [Compound 113] | 100 | 82% | 100 | 
CCNC(=O)OC(c1ccc(F)cc1)c1ccc(-c2noc(C(F)(F)F)n2)cc1 (stereo not drawn) [Compound 114] | 100 | 9% | 100 | 
O=C(OCc1cccc(-c2noc(C(F)(F)F)n2)c1)n1ccnc1 [Compound 123] |  | 0% |  | pest or weed control at 250 ppm (Phakopsora pachyrhizi; 250 ppm): 100%; pest or weed control at 250 ppm ([1]; 250 ppm): 96%
CCOC(=O)NN=Cc1ccc(-c2noc(C(F)(F)F)n2)s1 [Compound 124] |  | 73* % |  | Test A disease control rating (Phakopsora pachyrhizi; 50 ppm): 100%; Test C disease control rating ([1]; 50 ppm): 100%
O=C(OC(c1ccc(-c2noc(C(F)(F)F)n2)cc1)c1cccc(F)c1)n1ccnc1 (stereo not drawn) [Compound 125] | 100 | 97% | 100 | 
O=C(OC(c1ccc(-c2noc(C(F)(F)F)n2)cc1)c1cccc(Cl)c1)n1ccnc1 (stereo not drawn) [Compound 126] |  | 88* % |  | Test A disease control rating (Phakopsora pachyrhizi; 10 ppm): 99%; Test C disease control rating ([1]; 10 ppm): 0%
O=C(OC(c1ccc(F)cc1)c1ccc(-c2noc(C(F)(F)F)n2)cc1)n1ccnc1 (stereo not drawn) [Compound 127] | 100 | 99% | 100 | 
Cc1ccccc1C(OC(N)=O)c1ccc(-c2noc(C(F)(F)F)n2)cc1 (stereo not drawn) [Compound 128] | 100 | 88% | 100 | 
CNC(=O)OC(c1ccc(-c2noc(C(F)(F)F)n2)cc1)c1ccccc1C (stereo not drawn) [Compound 129] | 100 | 74% | 100 | 
NC(=O)OC(c1ccc(-c2noc(C(F)(F)F)n2)cc1)c1cccc(F)c1 (stereo not drawn) [Compound 131] | 100 | 96% | 100 | 
CNC(=O)OC(c1ccc(-c2noc(C(F)(F)F)n2)cc1)c1cccc(F)c1 (stereo not drawn) [Compound 132] | 100 | 95% | 100 | 
CCNC(=O)OC(c1ccc(-c2noc(C(F)(F)F)n2)cc1)c1cccc(F)c1 (stereo not drawn) [Compound 133] | 100 | 99% | 100 | 
CN(C)C(=O)OC(c1ccc(-c2noc(C(F)(F)F)n2)cc1)c1cccc(F)c1 (stereo not drawn) [Compound 134] | 100 | 50% | 89 | 
C#CCNC(=O)OC(c1ccc(-c2noc(C(F)(F)F)n2)cc1)c1cccc(F)c1 (stereo not drawn) [Compound 135] | 100 | 88% | 100 | 
CNC(=O)OC(c1ccccc1)c1ccc(-c2noc(C(F)(F)F)n2)cc1 (stereo not drawn) [Compound 137] | 100 | 70% | 100 | 
C=CCNC(=O)OC(c1ccccc1)c1ccc(-c2noc(C(F)(F)F)n2)cc1 (stereo not drawn) [Compound 138] | 100 | 99% | 100 | 
CCCNC(=O)OC(c1ccccc1)c1ccc(-c2noc(C(F)(F)F)n2)cc1 (stereo not drawn) [Compound 139] | 100 | 56% | 100 | 
CC(C)CNC(=O)OC(c1ccccc1)c1ccc(-c2noc(C(F)(F)F)n2)cc1 (stereo not drawn) [Compound 140] | 100 | 34% | 86 | 
COC(=O)NN=Cc1ccc(-c2noc(C(F)(F)F)n2)s1 [Compound 141] |  | 93* % |  | Test A disease control rating (Phakopsora pachyrhizi; 50 ppm): 100%; Test C disease control rating ([1]; 50 ppm): 100%
Cc1ccc(C(OC(N)=O)c2ccc(-c3noc(C(F)(F)F)n3)cc2)cc1 (stereo not drawn) [Compound 143] | 100 | 69% | 100 | 
CNC(=O)OC(c1ccc(C)cc1)c1ccc(-c2noc(C(F)(F)F)n2)cc1 (stereo not drawn) [Compound 144] | 100 | 0% | 100 | 
CCNC(=O)OC(c1ccc(C)cc1)c1ccc(-c2noc(C(F)(F)F)n2)cc1 (stereo not drawn) [Compound 145] | 100 | 28% | 98 | 
C=C(C)CNC(=O)OC(c1ccc(C)cc1)c1ccc(-c2noc(C(F)(F)F)n2)cc1 (stereo not drawn) [Compound 146] | 100 | 21% | 97 | 
